Source: paper PMC11258689, “A Snake Venom Peptide and Its Derivatives Prevent Aβ42 Aggregation and Eliminate Toxic Aβ42 Aggregates In Vitro” (ACS Chemical Neuroscience, 2024)
Non-standard residues stand in square brackets, D forms with d. Residues, ends and D or L forms follow the SMILES beside them.

Key:
Aβ42 oligomers = assay: QIAD assay (Aβ42 aggregate size distribution, oligomer elimination); type: biochemical; settings: 20 μM peptide added to 80 μM Aβ42 (pre-incubated 2 h), 30 min; density gradient, RP-HPLC UV 214 nm; n = 3
Protocol: In order to evaluate the efficacy of the peptides in eliminating Aβ42 oligomers, QIAD assays were performed.[39] Briefly, lyophilized Aβ42 (80 μM) was incubated for 2 h in sodium phosphate buffer for Aβ42 oligomerization. Then, each peptide (20 μM) was added to the Aβ42 solution and incubated for 30 min. Finally, samples were added on top of an iodixanol density gradient (5–50% (w/v) (OptiPrep, Sigma-Aldrich, Darmstadt, Germany) and centrifuged for 3 h at 4 °C and 259,000 x g (Optima TL-100, Beckman Coulter, Brea, CA, USA). For the sample analysis, 14 fractions (140 μL each) were collected from top to bottom. The top fractions, named fractions 1–2, contained Aβ42-monomers; fractions 4–6 contained the Aβ42-oligomers, which are of special interest; and the bottom fractions 11–14 contained high molecular weight of aggregated Aβ42. Each density gradient fraction was analyzed by Reversed Phase Liquid Chromatography. For this an Agilent 1260 Infinity II (Santa Clara, California, USA) system was equipped with an Agilent Zorbax SB-300 C-8 5 μm, 4.6 × 250 mm Column (Santa Clara, California, USA) and a multi-wavelength detector set to acquire the UV absorbance at 214 nm. H2O + 0.1% trifluoroacetic acid (AppliChem, Darmstadt, Germany) and acetonitrile (Roth, Karlsruhe, Germany) + 0.1% trifluoroacetic acid were used as eluent A and B, respectively. The acquisition method consisted of an initial isocratic step at 15% B, followed by a gradient from 15% B to 45% B in 10 min and another isocratic step at 45% B. The column temperature was set to 80 °C for the entire analysis. This method ensured full separation of the iodixanol density gradient medium and Aβ42 in all fractions. Aβ42 peaks were analyzed and integrated by the Agilent OpenLab 2.5 software. All measurements were performed in triplicate (n = 3), and data are presented as mean ± SM.

Aβ42 aggregates = assay: sFIDA assay of Aβ42 aggregate elimination; type: biochemical; settings: n = 3; for sFIDA signal reduction compared with the control: 50 nM peptide, 1 nM Aβ42 aggregates, overnight, room temperature, PBS, TIRFM pixel count
Protocol: To determine the influence of peptides on Aβ42 aggregates, an sFIDA assay was performed. The principle was previously described.[29] Therefore, we used pretreated 384 glass bottom microtiterplates (Sensoplate plus, Greiner Bio-One GmbH, Frickenhausen, Germany) to immobilize the capture-antibody Nab228 (Sigma-Aldrich, St. Louis, Missouri, USA) in a concentration of 2.5 μg/mL in 0.1 M carbonate buffer (Carl Roth, Karlsruhe, Germany). After an overnight incubation at 4 °C, the plate was washed five times with TBS and blocked with 80 μL of a 0.5% BSA solution in TBS with 0.03% ProClin 300 (Sigma-Aldrich, St. Louis, Mo, USA) for 1.5 h at room temperature.
The influence of 50 nM CDPs on 1 nM Aβ42 aggregates (prepared according to Ref ([70])) in PBS was determined by incubating them overnight at room temperature and 600 rpm. As a control, the same Aβ42 aggregates concentration was incubated without additions of peptides; instead, the buffer was added to contain the same end concentrations. The plate was washed as previously described, and 20 μL each of the peptide solution and a serial dilution of Aβ42 aggregates standards in PBS were added and incubated for 2 h at room temperature.
Afterward, 20 μL of 0.625 μg/mL IC-16 CF633 (Heinrich Heine Universität Düsseldorf, Germany) in TBS with 0.1% BSA was added to each well and incubated for 1 h at room temperature. This red fluorescently labeled detection antibody was labeled with CF633 succinimidyl ester (Sigma-Aldrich, St. Louis, Missouri, USA) after the manufacturer’s protocol. After a washing step to remove the redundant antibodies, 80 μL of TBS containing 0.03% Proclin were added.
By using a total internal reflection microscopy (TIRFM) (Leica Camera AG, Wetzlar, Germany), measurement (excitation: 635 nm, emission filter: 705/22 nm) was carried out with an oil immersion objective in 100× magnifications as previously described by Kass et al. 2022, and for each well, 25 of 14-bit grayscale images were measured with a size of 1000 × 1000 pixel each. […]

Aβ42 = molecular target: T1, Aβ42 (Homo sapiens, UniProt P05067); assay: Thioflavin T (ThT) assay of Aβ42 aggregation; type: biochemical; settings: 28 μM peptide, 10 μM Aβ42, 5 μM ThT, 24 h, room temperature; mean of n = 3
T1 construct: purchased Bachem, Bubendorf, Switzerland
Protocol: To evaluate the ability of the peptides to prevent Aβ42 aggregation, a ThT assay was performed. Aβ42 (10 μM), ThT (5 μM), and the peptides (28 μM) were incubated in 96-well plates for 24 h at room temperature in a plate reader (Clariostar, BMG Labtech, Ortenberg, Germany). During this time, the ThT fluorescence was measured every 6 minutes with an excitation of 440 nm and emission of 490 nm. The data were corrected considering the blank wells (without Aβ42 and the peptides). None of the peptides interact with ThT alone or has autofluorescence properties. All measurements were performed in triplicate (n = 3), and data are presented as mean ± SM.
Different concentrations were titrated to investigate CDP-1 and -2 dose dependency on the Aβ42 aggregate formation, and a ThT assay was performed as described before. The effect of 0, 0.5, 1, 3, 6, 13, and 28 μM peptides was tested against 10 μM Aβ42 over 24 h. All experiments were performed in triplicate (n = 3), and data are presented as mean ± SM.

SH-SY5Y cells = assay: MTT cell viability assay, SH-SY5Y; type: cell-based, human; settings: 20 and 40 μM peptide, overnight, n = 3
Protocol: (§1) The cell viability assay was performed using the reduction of [3-(4,5-dimethylthiazol-2-yl)-2,5-diphenyl tetrazolium bromide-MTT] (Merck, Darmstadt, Germany) to investigate the cytotoxicity of the CDPs against SH-SY5Y (human neuroblastoma) and HEK293 (human embryonic kidney) cells. Both cell lines were purchased from the Leibniz Institute DSMZ-German collection of microorganisms and cell cultures GmbH. HEK293 cells were cultivated in Dulbecco’s modified Eagle’s medium high glucose (Merck, Darmstadt, Germany) containing 2% antibiotic solution of 10 000 units Penicillin, 10 mg streptomycin/ml (Merck, Darmstadt, Germany), and 10% fetal bovine serum (Merck, Darmstadt, Germany) at 37 °C with 5% CO2. […]
(§2) According to the manufacturer’s instructions, cell viability was measured using the Cell Proliferation Kit I (Roche, Basel, Switzerland). The absorbance of the formazan product was determined by measuring the absorption at 570 nm and subtracted from the absorbance at 660 nm.
(§3) The SH-SY5Y cells with a density of 10 000 cells (for HEK293 5000 cells) per well (total volume of 100 μL) were added to each well of a 96-well tissue culture plate (VWR North American) and incubated overnight at 37 °C with 5% CO2. […] Finally, the absorbance was measured at 570 and 660 nm using a CLARIO star plate reader (BMG labtech, Ortenberg, Germany), and the cell viability was calculated using eq 2: [drawing 2] […]

HEK293 cells = assay: MTT cell viability assay, HEK293; type: cell-based, human; settings: 20 and 40 μM peptide, overnight, n = 3
Protocol: as §1, §2, §3

T1 sequence (P05067 672-713 limits assumed): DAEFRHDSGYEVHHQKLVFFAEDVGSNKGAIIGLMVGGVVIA

SMILES: COC(=O)[C@@H](CCCCN)NC(=O)[C@@H](CCSC)NC(=O)[C@@H](CC(=O)O)NC(=O)[C@@H](CS)NC(=O)[C@@H](CCCNC(=N)N)NC(=O)[C@@H](Cc1c[nH]c2ccccc12)NC(=O)[C@@H](CCCNC(=N)N)NC(=O)[C@@H](Cc1c[nH]c2ccccc12)NC(=O)[C@@H](CCCCN)NC(=O)[C@@H](CS)NC(=O)[C@@H](CS)NC(=O)[C@@H](CCCCN)NC(=O)[C@@H](CCCCN)NC(C)=O [CDP-1D] (Ac-[dK][dK][dC][dC][dK][dW][dR][dW][dR][dC][dD][dM][dK]-OMe; N-terminus and C-terminus assumed)
- Aβ42 in QIAD fraction 6 (oligomers) (Aβ42 oligomers): significant reduction
- sFIDA effect on Aβ42 aggregates (Aβ42 aggregates; Aβ42 aggregates treated with peptide, TIRFM): decrease in aggregates

SMILES: COC(=O)[C@H](CCCCN)NC(=O)[C@H](CCCCN)NC(=O)[C@H](CS)NC(=O)[C@H](CS)NC(=O)[C@H](CCCCN)NC(=O)[C@H](Cc1c[nH]c2ccccc12)NC(=O)[C@H](CCCNC(=N)N)NC(=O)[C@H](Cc1c[nH]c2ccccc12)NC(=O)[C@H](CCCNC(=N)N)NC(=O)[C@H](CS)NC(=O)[C@H](CC(=O)O)NC(=O)[C@H](CCSC)NC(=O)[C@H](CCCCN)NC(C)=O [CDP-1] (Ac-KMDCRWRWKCCKK-OMe; C-terminus assumed)
- Aβ42 in QIAD fractions 4–5 (oligomers) (Aβ42 oligomers): not detected
- sFIDA signal reduction compared with the control (Aβ42 aggregates): 61.1%
- ThT signal / Aβ42 aggregation compared to Aβ42 alone (Aβ42): no Aβ42 aggregation was determined
- cytotoxicity in SH-SY5Y cells (SH-SY5Y cells): nontoxic
- cytotoxicity in HEK293 cells (HEK293 cells): nontoxic

SMILES: COC(=O)[C@H](CCCCN)NC(=O)[C@H](CCCCN)NC(=O)[C@H](CO)NC(=O)[C@H](CO)NC(=O)[C@H](CCCCN)NC(=O)[C@H](Cc1c[nH]c2ccccc12)NC(=O)[C@H](CCCNC(=N)N)NC(=O)[C@H](Cc1c[nH]c2ccccc12)NC(=O)[C@H](CCCNC(=N)N)NC(=O)[C@H](CO)NC(=O)[C@H](CC(=O)O)NC(=O)[C@H](CCSC)NC(=O)[C@H](CCCCN)NC(C)=O [CDP-2] (Ac-KMDSRWRWKSSKK-OMe)
- Aβ42 in QIAD fractions 4–5 (oligomers) (Aβ42 oligomers): not detected
- sFIDA signal reduction compared with the control (Aβ42 aggregates): 95.2%
- ThT signal / Aβ42 aggregation compared to Aβ42 alone (Aβ42): four times smaller
- cytotoxicity in SH-SY5Y cells (SH-SY5Y cells): nontoxic
- cytotoxicity in HEK293 cells (HEK293 cells): nontoxic
